The subject of assay [1] is XBP1 mRNA splicing / RIDD. Put plainly: XBP1 splicing and Blos1 mRNA in LPS-treated splenocytes. Format: cell-based, mouse. The conditions noted are these: LPS treatment.
The target in another assay is T1, IRE1α* (Homo sapiens, UniProt O75460).
T1 construct: human IRE1α (residues 547-977, IRE1α*) was expressed in SF9 insect cells; His6 (N); made in house; host or cells: Sf9 insect cells (Bac-to-Bac baculovirus)
Put plainly: In vitro kinase activity assay (IRE1α kinase inhibition). Format: biochemical. The method, boiled down: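 His6-tagged human IRE1α cytosolic kinase/RNase domains (residues 547-977) from SF9 cells, preincubated 30 min with inhibitor (top 10 or 60 μM, three-fold dilutions) in pH 7.5 HEPES/MgCl2 buffer, then 10 μCi [γ-32P]ATP, 23 °C, 3 h. Filter-spot autoradiography; inhibition normalised to no-kinase and DMSO wells; IC50 from one-site fit.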

For assay [2], the system named is RIDD (IRE1α-dependent mRNA decay). The assay can be described thus: Real-time PCR of RIDD mRNA targets in INS-1 cells overexpressing IRE1α (Dox). The format is cell-based, rat. The conditions noted are these: 20 μM, 5 ng/mL Dox. The protocol: RNA Isolation, Quantitative Real-Time PCR, and Primers
INS-1 or isogenic IRE1α-overexpressing INS-1 cells were plated onto Poly-D-Lysine coated tissue culture plate and grown for 48 hrs. Inhibitors or DMSO were added to the media and incubated for 1 hour at 37° C. with 5% CO2 prior to addition of ER stress agents or Dox as indicated. RNA was isolated from whole cells using either QIAGEN RNeasy Mini kits or Trizol (Invitrogen) and reverse transcribed as above to obtain total cDNA. Then, XBP-1 primers were used to amplify an XBP-1 amplicon spanning the 26 nt intron from the cDNA samples in a regular 3-step PCR. Thermal cycles were: 5 min at 95° C., 30 cycles of 30 s at 95° C., 30 s at 60° C., and 1 min at 72° C., followed by 72° C. for 15 min, and hold at 4° C. Primers used for XBP-1 mRNA splicing were as follows: sense primer XBP1.3 S (5′ […]-3′ (SEQ ID NO:2)) and antisense primer XBP1.2AS (5′-[…]-3′ (SEQ ID NO:3)). PCR fragments were then digested by PstI, resolved on 3% agarose gels, stained with EtBr and quantified by densitometry using ImageJ (NIH). For standard mRNA detection, generally […] total RNA was reverse transcribed using the QuantiTect Reverse Transcription Kit (QIAGEN). For qPCR, we used SYBR green (QIAGEN) and StepOnePlus Real-Time PCR System (Applied Biosystems). Thermal cycles were: 5 min at 95° C., 40 cycles of 15 sec at 95° C., 30 sec at 60° C. Gene expression levels were normalized to Beta Actin. Primers used for qPCR of RIDD targets were as follows: Beta Actin Fwd: 5′-[…]-3′ (SEQ ID NO:4), Beta Actin Rev: 5′-[…]-3′ (SEQ ID NO:5), Insulin 1 Fwd: 5′-GTCCTCTGGGAGCCCAAG-3′ (SEQ ID NO:6), Insulin 1 Rev: 5′-ACAGAGCCTCCACCAGG-3′ (SEQ ID NO:7), Insulin 2 Fwd: 5′-ATCCTCTGGGAGCCCCGC-3′ (SEQ ID NO:8), Insulin 2 Rev: 5′-AGAGAGCTTCCACCAAG-3′ (SEQ ID NO:9), Blos1 Fwd: 5′-[…]-3′ (SEQ ID NO:10), and Blos1 Rev: 5′-[…]-3′ (SEQ ID NO:11).
Real-Time PCR (Q-PCR) used SYBR green and Step OnePlus Real-Time PCR System (Applied Biosystems). Thermal cycles were: 5 min at 95° C., 40 cycles of 15 s at 95° C., 30 s at 60° C. Gene expression levels were normalized to GAPDH. Q-PCR Sense/antisense primers used: Rat GAPDH, 5′-[…]-3′ (SEQ ID NO:14) and 5′-[…]-3′ (SEQ ID NO:15); Rat Ins1, 5′-GTCCTCTGGGAGCCCAAG-3′ (SEQ ID NO:6) and 5′-ACAGAGCCTCCACCAGG-3′ (SEQ ID NO:7); Rat Pdia4, 5′-CGTCTCGCCCTGATTCGT-3′ (SEQ ID NO:16) and 5′-[…]-3′ (SEQ ID NO:17); Rat Blos1, 5′-[…]-3′ (SEQ ID NO:18) and 5′-TGTCCAGTTCGATGCTCCG-3′ (SEQ ID NO:19).
Real-time PCR for FIGS. 34A-34F: Real-Time PCR (Q-PCR) used SYBR green and Step OnePlus Real-Time PCR System (Applied Biosystems). Thermal cycles were: 5 min at 95° C., 40 cycles of 15 s at 95° C., 30 s at 60° C. Gene expression levels were normalized to GAPDH. Q-PCR Sense/antisense primers used: Rat GAPDH, 5′-[…]-3′ (SEQ ID NO:20) and 5′-[…]-3′ (SEQ ID NO:21); Rat Ins1, 5′-GTCCTCTGGGAGCCCAAG-3′ (SEQ ID NO:6) and 5′-ACAGAGCCTCCACCAGG-3′ (SEQ ID NO:7); Rat Ins2, 5′-ATCCTCTGGGAGCCCCGC-3′ (SEQ ID NO:8) and 5′-AGAGAGCTTCCACCAAG-3′ (SEQ ID NO:9); Rat Pdia4, 5′-[…]-3′(SEQ ID NO:22) and 5′-[…]-3′ (SEQ ID NO:23); Rat Blos1, 5′-[…]-3′ (SEQ ID NO:18) and 5′-TGTCCAGTTCGATGCTCCG-3′ (SEQ ID NO:19).

T1 sequence (O75460 547-977): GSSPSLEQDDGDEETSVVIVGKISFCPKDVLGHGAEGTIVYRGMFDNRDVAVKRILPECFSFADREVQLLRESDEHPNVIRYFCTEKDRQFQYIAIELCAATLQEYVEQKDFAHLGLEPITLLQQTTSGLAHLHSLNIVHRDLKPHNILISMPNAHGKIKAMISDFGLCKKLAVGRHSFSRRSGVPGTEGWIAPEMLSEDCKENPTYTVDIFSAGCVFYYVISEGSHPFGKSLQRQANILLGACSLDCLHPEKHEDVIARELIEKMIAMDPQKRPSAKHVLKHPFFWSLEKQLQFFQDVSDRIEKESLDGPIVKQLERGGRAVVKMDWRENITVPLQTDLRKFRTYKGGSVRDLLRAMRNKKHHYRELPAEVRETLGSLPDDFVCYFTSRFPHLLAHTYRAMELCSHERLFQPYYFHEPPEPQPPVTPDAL

For orientation: IC50 means the concentration that gives 50% inhibition. With `O=S(=O)(CC(F)(F)F)Nc1ccc(Oc2ncccc2-c2ccnc(N[C@H]3CCCNC3)n2)c2ccccc12` (stereo in doubt) [PAIR1, 2,2,2-trifluoro-N-(4-(3-(2-(piperidin-3-ylamino)pyrimidin-4-yl)pyridin-2-yloxy)naphthalen-1-yl)ethanesulfonamide], in assay [1], the “Blos1 mRNA decay” value was “significantly rescued” and the “XBP1 mRNA splicing” value is “reversed with KIRA9, but not with PAIR1”. Also, the IC50 at IRE1α* (IRE1α kinase inhibition, read-out: IC50 IRE1a) was 25 nM. Further, the “mRNA decay substrates Blos1, Ins1 and Ins2” value in assay [2] is reported as “rescued”.

In general, Ki refers to the equilibrium dissociation constant of an inhibitor or competing ligand from its target. Consider `O=S(=O)(CCC(F)(F)F)Nc1ccc(Oc2ncccc2-c2ccnc(NC3CCCNC3)n2)c2ccccc12` (centres unmarked) [KIRA9, 3,3,3-trifluoro-N-(4-(3-(2-(piperidin-3-ylamino)pyrimidin-4-yl)pyridin-2-yloxy)naphthalen-1-yl)propane-1-sulfonamide], for which, in assay [1], the “Blos1 mRNA decay” value was “significantly rescued” and the “XBP1 mRNA splicing” value was “reversed”. Further, the inhibition constant (Ki) at IRE1α* (read-out: Inhibition of IRE1α*'s kinase activity, Ki) amounted to 160 nM. The “mRNA decay substrates Blos1, Ins1 and Ins2” value in assay [2] is on record as “rescued”.
